Assay results reported in publication PMC7948796, “Mammalian-like type II glutaminyl cyclases in Porphyromonas gingivalis and other oral pathogenic bacteria as targets for treatment of periodontitis” (The Journal of Biological Chemistry, 2021).
Read-outs that look alike come from different tables or passages of the source.

Tests used:
PiQC [1] = target: T1, PiQC (Prevotella intermedia, UniProt A0AAD1F671); format: biochemical; details: for Effect of chelator on QC activity: PiQC, Fig. S2
Experimental: (§1) To test whether QC is a metalloenzyme, the turnover of H-Gln-AMC at a concentration corresponding to 0.5 KM was investigated in the presence of the metal chelators 1,10- phenanthroline, dipicolinic acid, and EDTA. The fluorometric activity assay was performed as described above, except for the presence of 1% (v/v) DMSO in the case of 1,10-phenanthroline or dipicolinic acid. Finally, the residual QC activity was determined at steady state, whereas QC without chelators and ± 1% DMSO served as positive control.
(§2) 250 µM H-Gln-AMC and increasing chelator
(§3) concentrations were used to investigate the inhibitory effect on QC activity. Bars indicate residual
(§4) QC activity following initiation of the reaction by adding 5 nM QC (red: PgQC; green: PiQC; blue:
(§5) TfQC). All measurements were performed at 30°C as described in the text.
(§6) (1 picture or pasted object on this page, not shown here)

TfQC [2] = target: T2, TfQC (Tannerella forsythia, UniProt G8UMP8); format: biochemical; details: Fig. S2
T2 sequence (G8UMP8 entry or part of it): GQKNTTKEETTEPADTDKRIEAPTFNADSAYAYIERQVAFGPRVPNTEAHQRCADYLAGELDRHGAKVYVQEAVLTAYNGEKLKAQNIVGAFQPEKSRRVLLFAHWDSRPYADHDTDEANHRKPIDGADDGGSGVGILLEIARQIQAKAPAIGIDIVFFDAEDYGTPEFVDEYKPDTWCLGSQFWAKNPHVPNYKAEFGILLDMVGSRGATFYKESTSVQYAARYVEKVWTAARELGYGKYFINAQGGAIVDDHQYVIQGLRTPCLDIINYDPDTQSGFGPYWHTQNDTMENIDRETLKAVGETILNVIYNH
Experimental: as §1, §2, §3, §4, §5, §6

PgQC [3] = target: T3, PgQC (Porphyromonas gingivalis, UniProt Q7MT37); experiment: Residual QC activity in presence of metal chelators; format: biochemical; set-up: His-tag (pET28a, thrombin-cleavable) (N, cleaved yes); made in house; host or cells: E. coli Rosetta(DE3)pLysS; details: Fig. S2
Experimental: as §1
Supplementary Figure 2: Inhibition of bacteroidal QC activity by metal chelators: ( A) ED TA ,
(B) dipicolinic acid and (C) 1,10-phenantroline. 250 µM H-Gln-AMC and increasing chelator
as §3, §4, §5, §6

PiQC [4] = target: T1, PiQC; experiment: QC inhibition assay with fluorogenic substrate H-Gln-AMC (Ki); format: biochemical; details: 1% DMSO, pH 8.0, 30 °C
Experimental: (§7) Inhibitory constants were determined using concentrations of H-Gln-AMC varying from 1/4 KM to 2 KM and a final concentration of bacterial QC in a range between 25 nM and 50 nM. Progress curves were fitted to the general equation for competitive inhibition.

TfQC [5] = target: T2, TfQC; experiment: as above; format: biochemical; details: 1% DMSO, pH 8.0, 30 °C
Experimental: as §7

HsQC [6] = target: T4, HsQC (Homo sapiens, UniProt Q16769); experiment: as above; format: biochemical
T4 sequence (Q16769 29-361): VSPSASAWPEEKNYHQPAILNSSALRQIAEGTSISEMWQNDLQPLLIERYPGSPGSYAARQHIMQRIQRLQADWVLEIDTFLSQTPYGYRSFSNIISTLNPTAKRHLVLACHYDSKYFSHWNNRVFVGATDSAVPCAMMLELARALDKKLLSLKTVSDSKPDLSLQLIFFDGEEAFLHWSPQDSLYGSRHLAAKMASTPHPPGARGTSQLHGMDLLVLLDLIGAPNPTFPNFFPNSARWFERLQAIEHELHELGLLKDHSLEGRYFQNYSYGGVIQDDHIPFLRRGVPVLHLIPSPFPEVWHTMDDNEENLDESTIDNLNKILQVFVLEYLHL

PgQC [7] = target: T3, PgQC; experiment: as above; format: biochemical; set-up: His-tag (pET28a, thrombin-cleavable) (N, cleaved yes); made in house; host or cells: E. coli Rosetta(DE3)pLysS
Experimental: as §7

PgQC [8] = target: T3, PgQC
Experimental: (§8) QC activity was evaluated using the fluorogenic substrate H-Gln-AMC as described previously ([43]). Measurements were performed at different concentrations of fluorogenic substrate and 0.5 U pyroglutaminyl aminopeptidase in 50 mM Tris-HCl, 50 mM NaCl at pH 8.0. After 10 min incubation time at 30 °C, the reaction was initiated by addition of approximately 50 nM QC to a final volume of 125 μl reaction mixture. QC activity was calculated from a standard curve of the fluorophore AMC at assay conditions using excitation/emission wavelengths of 380/460 nm. All measurements were carried out in 96-well microtiter plates (Fisher Scientific) at 30 °C using the FluoStar Optima (BMG Labtech). All kinetic data were evaluated using GraFit software (Version 7, Erithacus software Ltd).
(§9) Supplementary Figure 1: QC activity measurements for bacteroidal QC cataly zed cyclization of the fluorogenic substrate H-Gln-AMC. (A) v/S-characteristics and Lineweaver-Burk plots for PgQC (red circles), TfQC (green triangles) and PiQC (blue squares). QC activity measurements were performed in 50 mM Tris-HCl, pH 8.0 and 50 mM NaCl at 30°C. Kinetic data were evaluated using GraFit software (Version 7, Erithacus software Ltd., Horley, UK). (B) pH dependence of PgQC, TfQC, and PiQC activities; colors and sy mbols as in (A). The specificity constants kcat/KM were determined under first-order rate law conditions with substrate concentrations of 1/10 KM.
(§10) Measurements were carried out at 30°C in buffer consisting of 0.1 M Tris-HCl, 0.05 MES, 0.05 mM acetic acid and 0.05 mM NaCl.. […]

TfQC [9] = target: T2, TfQC; experiment: Kinetics of cyclization of H-Gln-AMC; format: biochemical
Experimental: as §8, §9, §10

PiQC [10] = target: T1, PiQC; format: biochemical
Experimental: as §8, §9, §10

HsQC [11] = target: T4, HsQC; set-up: method as in Schilling et al. ([44]); details: ref Schilling et al. ([44]); cited from earlier work
[12] = substrate: CC(C)[C@H](NC(=O)[C@H](CCC(N)=O)NC(=O)[C@@H](N)CCC(N)=O)C(=O)N[C@@H](C)C(=O)N[C@@H](C)C(=O)N[C@@H](C)C(=O)N[C@@H](CC(=O)O)C(=O)N1CCC[C@H]1C(=O)N[C@@H](CO)C(=O)N1CCC[C@H]1C(N)=O; experiment: Conversion of N-termini of putative natural substrates, spectrophotometric assay with glutamate dehydrogenase; format: biochemical, Porphyromonas gingivalis; details: other: PgQC; determined under first-order-rate law conditions, [S] << KM; pH 8.0; 30.0 °C
Experimental: (§11) For evaluation of possible physiological substrates, PgQC activity was determined spectrophotometrically by using glutamate dehydrogenase as auxiliary enzyme described previously ([44]). […] After 10-min incubation time at 30 °C, reactions were initiated by addition of approximately 115 nM PgQC to a final volume of 250 μl reaction mixture. QC turnover of substrates was monitored by a decrease of absorption at 340 nm and enzyme activity was determined from a standard curve of NH4Cl at assay conditions.

[13] = substrate: CC(C)[C@H](NC(=O)[C@H](CO)NC(=O)[C@H](C)NC(=O)[C@H](CC(N)=O)NC(=O)[C@H](CO)NC(=O)[C@H](CCC(=O)O)NC(=O)[C@@H](N)CCC(N)=O)C(=O)N[C@@H](CCCNC(=N)N)C(=O)N1CCC[C@H]1C(=O)N[C@@H](CO)C(N)=O; experiment: as above; format: biochemical, Porphyromonas gingivalis; details: other: PgQC; determined under first-order-rate law conditions, [S] << KM; pH 8.0; 30.0 °C
Experimental: as §11

[14] = substrate: CC[C@H](C)[C@H](NC(=O)[C@@H](NC(=O)[C@H](CC(=O)O)NC(=O)[C@@H](N)CCC(N)=O)C(C)C)C(=O)N[C@@H](CCCNC(=N)N)C(=O)N1CCC[C@H]1C(=O)N[C@@H](Cc1c[nH]c2ccccc12)C(=O)N[C@@H](CO)C(=O)N[C@@H](CC(C)C)C(=O)N[C@@H](CCC(N)=O)C(N)=O; experiment: as above; format: biochemical, Porphyromonas gingivalis; details: other: PgQC; determined under first-order-rate law conditions, [S] << KM; pH 8.0; 30.0 °C
Experimental: as §11

[15] = substrate: CC[C@H](C)[C@H](NC(=O)[C@H](CO)NC(=O)[C@H](CC(=O)O)NC(=O)[C@@H]1CCCN1C(=O)[C@@H](NC(=O)[C@@H](NC(=O)[C@H](CO)NC(=O)[C@@H](N)CCC(N)=O)C(C)C)C(C)C)C(=O)NCC(=O)N[C@@H](CCCNC(=N)N)C(N)=O; experiment: as above; format: biochemical, Porphyromonas gingivalis; details: other: PgQC, pH 8.0, 30 °C
Experimental: as §11

[16] = substrate: C[C@H](NC(=O)[C@H](CCC(=O)O)NC(=O)[C@H](Cc1ccc(O)cc1)NC(=O)[C@@H](NC(=O)[C@H](CCCNC(=N)N)NC(=O)[C@H](CC(N)=O)NC(=O)[C@H](CCCNC(=N)N)NC(=O)[C@H](CO)NC(=O)[C@@H](N)CCC(N)=O)[C@@H](C)O)C(=O)N[C@@H](Cc1ccc(O)cc1)C(N)=O; experiment: as above; format: biochemical, Porphyromonas gingivalis; details: other: PgQC, pH 8.0, 30 °C
Experimental: as §11

[17] = H-Gln-AMC substrate, 1% DMSO, pH 8.0, 30 °C, read-out: Inhibition of QC (Ki) PgQC

T1 sequence (A0AAD1F671 24-340 limits assumed): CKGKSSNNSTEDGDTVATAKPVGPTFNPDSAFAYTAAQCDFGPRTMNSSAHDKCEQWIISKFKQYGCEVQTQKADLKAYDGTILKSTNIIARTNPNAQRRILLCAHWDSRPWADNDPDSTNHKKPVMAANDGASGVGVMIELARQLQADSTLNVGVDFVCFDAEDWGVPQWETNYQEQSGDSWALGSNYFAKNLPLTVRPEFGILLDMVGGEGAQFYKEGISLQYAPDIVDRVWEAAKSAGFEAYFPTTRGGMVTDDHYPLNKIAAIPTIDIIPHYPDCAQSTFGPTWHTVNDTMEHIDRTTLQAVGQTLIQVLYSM

With `c1cnc2c(c1)ccc1cccnc12` [1,10-phenanthroline] the “Sensitivity of PiQC to chelator” value (PiQC [1]; PiQC compared with other bacteroidal QCs) was “particularly sensitive”, the “Effect of chelator on QC activity” value (PiQC [1]) was “strong inhibitory activity” and the “Effect of chelator on QC activity” value (TfQC [2]) was “strong inhibitory activity”. For the same molecule, the “Effect of chelator on QC activity” value (PgQC [3]) was “strong inhibitory activity”.

`c1ccc(Cn2ccnc2)cc1` [1-Benzylimidazol, 1-benzylimidazole] showed a Ki (PiQC [4]) of 13.5 ± 2.2 µM, a Ki (TfQC [5]) of 6.45 ± 0.33 µM and a Ki (HsQC [6]) of 16.8 ± 3.5 µM. The “Mode of inhibition of PgQC” value (PgQC [7]; Fig. S3) was “competitive manner”, the Ki (PgQC [7]; [17]) was 10.4 ± 0.3 µM and the Ki (PgQC [7]; stated in text for the bacteroidal QCs in general, read-out: Estimated Ki, highest efficacy) was roughly 10 µM.

With `c1ccc2[nH]cnc2c1` [Benzimidazole, benzimidazole] the Ki (PiQC [4]) was 85.5 ± 4.7 µM, the Ki (TfQC [5]) was 170 ± 1 µM and the Ki (HsQC [6]) was 318 ± 23 µM. The Ki (PgQC [7]; [17]) was 32.1 ± 1.4 µM.

With `O=C(O)CN(CCN(CC(=O)O)CC(=O)O)CC(=O)O` [EDTA] the “Effect of chelator on QC activity” value (PiQC [1]) was “little influence”, the “Effect of chelator on QC activity” value (TfQC [2]) was “little influence” and the “Effect of chelator on QC activity” value (PgQC [3]) was “little influence”.

In the case of `Cc1cc(=O)oc2cc(NC(=O)[C@@H](N)CCC(N)=O)ccc12` [H-Gln-AMC], the “specificity constant kcat/KM relative to that of HsQC” value (PgQC [8]) is reported as roughly 9%, the Km (PgQC [8]; pH 8.0, 30 °C) is reported as 510 ± 13 µM and the kcat (PgQC [8]; pH 8.0, 30 °C) is reported as 4.71 ± 0.22 s⁻¹. The “KM value higher compared with HsQC” value (TfQC [9]) was roughly 20 fold, the “specificity constant kcat/KM relative to that of HsQC” value (TfQC [9]) was “approximately 4%” and the Km (TfQC [9]; pH 8.0, 30 °C) was 1090 ± 30 µM. For the same molecule, the kcat (TfQC [9]; pH 8.0, 30 °C) was 4.49 ± 0.22 s⁻¹, the “specificity constant kcat/KM relative to that of HsQC” value (PiQC [10]) was roughly 13% and the Km (PiQC [10]; pH 8.0, 30 °C) was 645 ± 7 µM. The kcat (PiQC [10]; pH 8.0, 30 °C) was 8.51 ± 0.37 s⁻¹, the Km (HsQC [11]) was 54 ± 2 µM and the kcat (HsQC [11]) was 5.3 ± 0.1 s⁻¹.

In the case of `c1c[nH]cn1` [Imidazole, imidazole], the Ki (PiQC [4]) is reported as 288 ± 11 µM, the Ki (TfQC [5]) is reported as 280 ± 15 µM and the Ki (PgQC [7]; [17]) is reported as 349 ± 23 µM.

With `O=C(O)c1cccc(C(=O)O)n1` [dipicolinic acid] the “Effect of chelator on QC activity” value (PiQC [1]) was “strong inhibitory activity”, the “Effect of chelator on QC activity” value (TfQC [2]) was “strong inhibitory activity” and the “Effect of chelator on QC activity” value (PgQC [3]) was “strong inhibitory activity”.

B1: PgQC (Porphyromonas gingivalis W83) (protein)
chain: NGNNTSETQGDRTEQAETVQADLFSADSAYTFVQRQVNFGPRIPGTAPHRACGDWLVATLRSFGAAVQEQTAEIKAHDGTMLPMRNIIASYRPEATGRMLLMAHWDTRPVCDQDANPAMHTETFDGADDGGSGVGVLLEIARYLGQQKDLGMGIDIVFFDTEDYGSYGDDESWCLGSQYWSRNPHVAGYKAEAGILLDMVGAKGATFYWEYFSKSYAPGLISAVWQTAAALGYGNYFIQADGGALTDDHVPVIKNLGIPCIDIINYSSKNEHGFGDHWHTQRDNMQIIDKNVLDAVGETVIRYLDEQVKAASH
B1 gave a kcat/Km [12] of 12500 ± 1900 M⁻¹ s⁻¹, a kcat/Km [13] of 4300 ± 100 M⁻¹ s⁻¹ and a kcat/Km [14] of 18600 ± 100 M⁻¹ s⁻¹. The Km [15] was 492.5 ± 26 µM, the kcat [15] was 7 ± 0.66 s⁻¹ and the kcat/Km [15] was 14300 ± 600 M⁻¹ s⁻¹. For the same molecule, the Km [16] was 203.7 ± 5.1 µM, the kcat [16] was 13.3 ± 1.6 s⁻¹ and the kcat/Km [16] was 65100 ± 6000 M⁻¹ s⁻¹.
